Values of other authors, collected in patent US20090068264A1, “Clinical Applications of Tetrahydrobiopterin, Lipoic Acid and Their Salts and Methods of Preparing Tetrahydrobiopterin Bis-Lipoate” (ChronoRX LLC, priority 2005, published 2009).

Test system: cerebral ischemia-reperfusion
Conditions: animal studies of cerebral ischemia; after LA pretreatment; reduced from 78% without pretreatment

In the case of `O=C(O)CCCCC1CCSS1` (stereo not shown) [LA, 1,2-dithiolane-3-pentanoic acid], the “mortality rate during 24 hours of reperfusion” value is given as 26%.
